Measurements from patent US6355785B1, “Guanosine-rich oligonucleotide integrase inhibitors” (Aronex Pharmaceuticals, Inc., priority 1993, dated 2002).
“Also recorded” adds a separate entry of the source. Where two headings read alike, the source gives them in different places.

Key:
[1] = target: T1, HIV-1 integrase catalytic core IN50-212 (Human immunodeficiency virus type 1 group M subtype B, UniProt P12497); assay: Disintegration assay, IN50-212; format: biochemical; conditions: IN50-212, 3 μM
T1 construct: purchased gift of Drs; T. Jenkins and R. Craigie, NIDDK, NIH (not bought)

HIV-1IIIB = assay: Long term suppression assay, MT-4 cells; format: cell-based
SIV integrase = target: T2, SIV integrase (Simian immunodeficiency virus, UniProt P05896); assay: SIV integrase 3′-processing assay; format: biochemical
T2 construct: Purified recombinant wild-type FIV and SIV integrases were generous gifts; purchased gift of Dr. R. Craigie (NIDDK) (not bought)

[2] = target: HIV-1 integrase (wild-type and deletion mutants) (Human immunodeficiency virus type 1 group M subtype B, UniProt P12497); assay: UV crosslinking DNA binding experiments
Description: UV crosslinking experiments. The method used has been described by Engleman et al. Engelman, et al., J. Virol. 68, 5911-5917 (1994). Briefly, integrase (at the indicated concentration) was incubated with substrate in reaction buffer as above for 5 minutes at 30° C. Reactions were then irradiated with a UV transilluminator (254 nm wavelength) from 3 cm above (2.4 mW/cm2) at room temperature for 10 minutes. An equal volume (16 μL) of 2X SDS-PAGE buffer (100 mM Tris, pH 6.8, 4% 2-mercaptoethanol, 4% SDS, 0.2% bromophenol blue, 20% glycerol) was added to each reaction. Twenty μL aliquots were heated at 95° C. for 3 minutes prior to loading on a 12% or 18% SDS-polyacrylamide gel. The gel was run at 120 V for 1.5 hours, dried, and exposed in a Phosphorlmager cassette. […] For the competition experiments (FIG. 29), integrase (200 nM) was preincubated with either the radiolabeled viral DNA substrate (20 nM) or T30177 (20 nM) for 5 minutes at 30° C. prior to the addition of competitor DNA at the indicated concentration.

HIV-1 protease = target: T3, HIV-1 protease (Human immunodeficiency virus type 1 group M subtype B, UniProt P04585); assay: HIV-1 protease assay; format: biochemical; conditions: up to 10 μM
T3 construct: HIV-1 protease enzyme (Bachem) was diluted to 166 ug/mL; purchased Bachem
Description: Protease assays. HIV-1 protease enzyme (Bachem) was diluted to 166 ug/mL in 50 mM NaOAc, 5 mM DTT, 2 mM ETDA, and 10% glycerol (pH 5.0) and stored as 10 ul aliquots at −20° C. HIV protease substrate I (Molecular Probes) was diluted to a working concentration of 0.32 nmol/μL. Enzyme (20 μL), substrate (20 μL) and drug (20 μL ) were added to each well of a microtiter plate. Positive and negative controls were evaluated in parallel. Fluorescence was quantitated on a Labsystems Fluoroskan II using 355 nm for excitation and 460 nm emission wavelengths at 37° C. at time zero and at 30 minute intervals for 2 hours.

[3] = format: in vivo, cynomolgus monkeys
Description: Dosing. Twelve experimentally naive cynomolgus monkeys were assigned to four groups of three animals each. Prior to dosing, each animal was lightly sedated with a combination of ketamine (1 0 mg/kg) and diazepam (0.5 mg/kg), and a catheter was introduced into the femoral artery for recording central arterial pressure. Monkeys were given a single intravenous infusion of 5, 20, or 50 mg AR177/kg or saline over ten minutes through a cephalic vein catheter using a Harvard infusion pump. Arterial blood samples were drawn at −10, +10, +20, +40, +60 and +120 minutes relative to the initiation of infusion into EDTA-containing tubes for hematology, complement factors, coagulation assay, serum chemistry, and plasma AR177 determination. At 24 hours post-infusion, blood was drawn via the femoral vein into EDTA-containing tubes for these same parameters. The concentration of AR177 in dosing solutions was confirmed post experiment by absorbance at 280 nm on a spectrophotometer. For the determination of AR177 by HPLC, the plasma fraction was obtained by low speed centrifugation of blood, and stored at −20° C. until used. Electrocardiograms (ECGs), central pressure, and heart rate were recorded continuously for 120 minutes following the initiation of doing. Table E-1 summarizes the study design. The animals were observed twice daily pharmacotoxic signs and general health beginning two days before dosing and for seven days following dosing. The monkeys were not necropsied at the end of the study.

T2 sequence (P05896 1156-1448): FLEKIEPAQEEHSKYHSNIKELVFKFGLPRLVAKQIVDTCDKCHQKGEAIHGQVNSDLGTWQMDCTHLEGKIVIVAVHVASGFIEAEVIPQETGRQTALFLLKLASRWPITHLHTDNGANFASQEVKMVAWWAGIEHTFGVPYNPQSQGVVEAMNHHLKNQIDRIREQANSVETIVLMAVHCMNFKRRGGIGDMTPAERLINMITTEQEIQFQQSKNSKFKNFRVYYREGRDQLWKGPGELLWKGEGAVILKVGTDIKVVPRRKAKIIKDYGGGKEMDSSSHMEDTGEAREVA

Row | Substance | inhibition of disintegration [1] [%] | viral DNA (PCR) 11 days after removal of drug (HIV-1IIIB) | protection of treated cells from reinfection with HIV-1IIIB (HIV-1IIIB; 100-fold over IC50, 4 days) | IC50 (SIV integrase) [nM] | IC50 virus-induced cytopathogenicity (Yellow Fever virus; Yellow Fever virus) [µg/mL] | MCC minimum concentration altering normal cell morphology (Yellow Fever virus; Yellow Fever virus assay) [μg/mL] | competition of integrase complex by competitor DNA ([2]; competitor in 500-fold excess) | inhibition of integrase binding to radiolabeled U5 DNA substrate ([2]; enzyme preincubated with oligo) | concentration required for DNA-protein complex formation ([2]; radiolabeled T30177) [nM] | binding of IN1-55 (zinc finger domain) ([2]; zinc alone) | inhibition of HIV-1 protease (HIV-1 protease) | emesis during the infusion ([3]; 20 mg/kg) | emesis during the infusion ([3]; 50 mg/kg) | blood pressure, heart rate, electrocardiographic activity ([3]; 5, 20, 50 mg/kg) | mortality ([3]; up to 50 mg/kg) | IC50 virus-induced cytopathogenicity (Semliki forest virus; Semliki forest virus) [µg/mL] | MCC minimum concentration altering normal cell morphology (Semliki forest virus; Semliki forest virus assay)
1 | 5′-gtggtgggtgggtgggt-3′ (GTGGTGGGTGGGTGGGT; phosphorothioate termini, further chemistry not given here) [T30177, pPT version of parent compound I100-15, 17 mer] | ≤ 30 | unable to detect the presence of viral DNA; also recorded: no detectable viral cDNA | no protection of cells from the second round of viral infection | 420 | >200 | >200 | could not be competed off | inhibited | ~20 | able to bind | No observable inhibition; also recorded: no effect on the viral enzyme was observed | – | – | – | – | – | –
2 | 5′-gtggtgggtgggtgggt-3′ [T30177] (GTGGTGGGTGGGTGGGT; phosphorothioate termini, further chemistry not given here) | – | – | – | – | – | – | – | – | – | – | – | all of the monkeys | two of the three animals | No clearly treatment-related changes | no animals died | >200 | ≧200 μg/mL
